Results reported in PMC8896685 (PLoS ONE, 2022).
Numbered stars: 1 amine (or outer) side, 2 acyl side, 3 side chain; on linkers, the order of the positions; unused ones are H or OH. Square brackets hold non-standard residues; d marks the D form. Side chains are listed from the residue outwards. Peptide text beside a SMILES is read from it. * marks the point of attachment. C18 diacid = O=C(O)CCCCCCCCCCCCCCCCC(=O)*; γGlu = O=C(O)[C@H](CCC(=O)[*:2])N[*:1]; Desaminohistidyl = O=C(CCc1c[nH]cn1)*; AEEA = NCCOCCOCC(=O)O; Aib = CC(C)(N)C(=O)O

Columns and labels:
[1] = molecular target: T1, Mouse GLP-1R (Mus musculus, UniProt O35659); assay: Receptor potency, CRE-luciferase functional assay in BHK cells; assay type: cell-based; conditions: GLP-1R EC50, pM (95% CI) 100% plasma, Mouse receptors, whole BHK cells, 100% species-specific plasma, 3 h 37°C, value (95% CI)
T1 construct: a plasmid encoding either the glucagon receptor or the GLP-1 receptor from the relevant species; expressed in transfected cells
T1 sequence (O35659 22-463): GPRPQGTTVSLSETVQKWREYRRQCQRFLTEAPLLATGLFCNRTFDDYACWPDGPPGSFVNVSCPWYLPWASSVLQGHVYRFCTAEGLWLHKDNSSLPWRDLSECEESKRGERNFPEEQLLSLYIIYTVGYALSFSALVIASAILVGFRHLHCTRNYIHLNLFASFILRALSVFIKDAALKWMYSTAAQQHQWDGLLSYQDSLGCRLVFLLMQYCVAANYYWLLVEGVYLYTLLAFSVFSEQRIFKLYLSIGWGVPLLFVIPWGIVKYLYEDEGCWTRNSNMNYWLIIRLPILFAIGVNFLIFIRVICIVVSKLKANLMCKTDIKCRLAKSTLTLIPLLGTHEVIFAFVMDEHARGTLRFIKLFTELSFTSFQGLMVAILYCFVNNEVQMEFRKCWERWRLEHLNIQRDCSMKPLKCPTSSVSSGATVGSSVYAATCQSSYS
Description: (§1) The binding assay was performed on cell membranes in the presence of 1% (v/v) species-specific heparin-treated pooled plasma (Bioreclamation IVT, Westbury, NY) diluted in assay buffer (50 mM HEPES supplemented with 5 mM EGTA, 5 mM MgCl2, and 0.005% (v/v) Tween 20, pH7.4). […] Cells stably expressing an individual receptor of interest were grown at 5% CO2, 37°C in DMEM (supplemented with 10% FCS, 0.5 mg/ml G418 and 0.3 mg/ml hygromycin). Membrane preparations were made from cells harvested at approximately 80% confluence, washed and homogenized in 20 mM HEPES with 0.1 mM EDTA, pH 7.4. Protein concentration was determined, and the membranes were stored at -80°C until use. The membrane binding assay was performed in a 96-well OptiPlate (PerkinElmer) in a total volume of 200 μl. Test compounds were dissolved in 80% DMSO and further diluted in assay buffer. 50 μl of diluted plasma was added to the assay plate wells followed by addition of test compounds (25 μl), cell membranes (50 μl, 0.06 mg/ml), SPA beads (20 mg/ml in assay buffer) and radioligand (60,000 cpm/well, corresponding to 0.06 nM; 2200 Ci/mmol. Each assay plate was incubated for 2 h at 30°C, centrifuged at 1500 rpm for 10 minutes and counted in a TopCount NXT instrument (PerkinElmer).
Functional assays were performed on whole cells in the absence or presence of 100% species-specific heparin-treated pooled plasma (Bioreclamation IVT). […] The cells were cultured with DMEM (supplemented with GlutaMAX, 10% FBS, 0.5 mg/ml G418 and 0.3 mg/ml hygromycin) at 5% CO2 and 37°C. At approximately 80–90% confluence, cells were washed with PBS and harvested with Versene (Life Technologies, Carlsbad, CA). The cells were counted and plated into 96-well microtiter plates coated with poly-D-Lys (Corning BioCoat) with 5,000 cells/well and thereafter incubated overnight in growth media. The next day the media was changed to assay buffer (DMEM without phenol red, supplemented with GlutaMAX, 10 mM HEPES, 1% ovalbumin and 0.1% Pluronic F-68) or to 100% plasma. In the absence of plasma, compounds were diluted in assay buffer. In assays tested with plasma, compounds were diluted in pure plasma. Buffer was removed from the plates and 50 μl of test compound dilutions was added to the plates followed by 50 μl of plasma or the same buffer used for compound dilution. The assay plates were incubated for 3 h in a 5% CO2 incubator at 37°C. The plates were then transferred to room temperature for 15 min and 100 μl Steadylite Plus reagent (PerkinElmer) was added to each well. The plates were shaken for 30 min at room temperature while protected from light after which luminescence was measured.
(§2) For the receptor binding assays, logIC50 values were calculated using non-linear regression analysis. The error estimation was reported as the 95% confidence interval. […] The calculations were performed in GraphPad Prism 6.4 (GraphPad, San Diego, CA) and error estimation was expressed as the 95% confidence interval. […] Averages, error estimation, ratios and plasma shifts were all calculated on logIC50 or logEC50 values and transformed to the anti-log values for reporting purposes.

[2] = tested on: DIO mice; assay: Subchronic effect on glucose tolerance in DIO mice (IPGTT at steady state); assay type: in vivo, mouse
Description: Compound exposure was measured by Luminescence Oxygen Channeling Immunoassay (LOCI). […] The three reactants were combined with the analyte and formed a two-sited immuno-complex. Illumination of the complex released singlet oxygen […] from the donor beads. They were channeled into the acceptor beads and triggered a chemiluminescence response which was measured in an EnVision plate reader (PerkinElmer). The amount of light was proportional to the concentration of the analyte. As calibrators, a dilution line of the relevant analyte in rat/mouse plasma was included.
Animals were fasted for 5–6 h prior to intraperitoneal (i.p.) injection of 2 g/kg glucose. Blood glucose was analysed on whole blood from the tail vein of conscious animals using a Biosen S-line glucose analyzer (EKF-diagonistic Gmbh, Barleben, Germany) by the glucose oxidase method, at basal and at t = 15, 30, 60, 90, 180 min post glucose administration.
DIO mice received s.c. injections once daily for 4–5 weeks. Animals were dosed at different times of day to allow for assessment of glucose tolerance and other metabolic parameters at same time of day but at different time points in relation to dosing. […] Body composition was assessed in conscious animals by Magnetic Resonance (MR) scanning prior to initiation of treatment and at the end of the treatment period. Steady-state plasma parameters were assessed in non-fasted animals. Additional DIO mice (n = 4) were included for verification of 24-h peptide exposure in steady state. The mice received s.c. doses daily for 2 weeks (13 days) with 3 nmol/kg NN1177; 5 nmol/kg NN1151 or 5 nmol/kg NN1359, where after plasma sampled after t = 5 h (NN1177) or 6 h (NN1151, NN1359), 10 h (all co-agonists) and 24 h (all co-agonists) post-dosing was analysed for exposure.
Analogues were tested for subchronic effect in two different set-ups. […] The Cmax and Cmin animals were included in separate treatment groups and evaluated head-to-head for glucose tolerance and additional metabolic parameters at the end of the treatment period. […] IPGTT was performed as described above, but additionally blood was sampled from vena facialis of conscious animals at t = 210 min relative to the administration of glucose for exposure analysis.
IPGTT was performed as described above.

[3] = molecular target: T2, Rat GCGR (Rattus norvegicus, UniProt P30082); assay: Receptor binding, SPA competitive binding assay; conditions: SPA competitive binding on BHK cell membranes, [125I]-glucagon tracer, 1% species specific plasma, 2 h 30°C; value (95% CI)
T2 construct: a plasmid encoding either the glucagon receptor or the GLP-1 receptor from the relevant species; expressed in transfected cells
T2 sequence (P30082 27-485): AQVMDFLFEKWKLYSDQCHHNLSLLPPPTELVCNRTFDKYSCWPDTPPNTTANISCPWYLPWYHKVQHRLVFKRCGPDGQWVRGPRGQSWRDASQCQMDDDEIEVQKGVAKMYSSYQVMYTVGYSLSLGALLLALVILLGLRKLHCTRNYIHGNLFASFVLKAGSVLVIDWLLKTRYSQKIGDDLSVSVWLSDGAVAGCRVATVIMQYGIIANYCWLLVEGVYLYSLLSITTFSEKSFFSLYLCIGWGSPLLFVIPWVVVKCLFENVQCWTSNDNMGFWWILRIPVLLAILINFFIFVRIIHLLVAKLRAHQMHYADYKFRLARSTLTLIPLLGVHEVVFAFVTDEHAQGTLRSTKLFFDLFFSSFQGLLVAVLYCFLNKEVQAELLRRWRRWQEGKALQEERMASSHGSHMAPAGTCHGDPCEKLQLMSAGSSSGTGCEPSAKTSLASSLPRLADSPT
Description: as §1, §2

[4] = steady state 5 weeks, 3 and 5 nmol/kg, Cmax (5 h post dosing), p<0.001

Compound	EC50 [1]	Glucose tolerance (IPGTT) vs vehicle ([2]; steady state 5 weeks, 3 nmol/kg, Cmin (24 h post dosing), p<0.001)	Glucose tolerance (IPGTT) vs vehicle ([2]; steady state 5 weeks, 5 nmol/kg, Cmin (24 h post dosing))	Basal blood glucose vs vehicle [2, 4]	Glucose tolerance (IPGTT) vs vehicle [2, 4]	Basal blood glucose vs vehicle ([2]; steady state 5 weeks, Cmin (24 h post dosing), p<0.001)	IC50 [3]	Glucose tolerance (IPGTT) vs vehicle ([2]; steady state, after 3 weeks daily s.c. dosing, Cmax (5 h post dosing), p<0.001)	Basal blood glucose vs vehicle ([2]; steady state, after 4 weeks daily s.c. dosing, Cmin (24 h post dosing))	Glucose tolerance (IPGTT) vs vehicle ([2]; steady state, after 4 weeks daily s.c. dosing, Cmin (24 h post dosing), p<0.001)
CC(C)C[C@H](NC(=O)[C@H](Cc1ccc(O)cc1)NC(=O)[C@H](CCCCN)NC(=O)[C@H](CO)NC(=O)[C@H](CC(C)C)NC(=O)[C@H](CC(=O)O)NC(=O)[C@H](CO)NC(=O)[C@@H](NC(=O)[C@H](Cc1ccccc1)NC(=O)[C@@H](NC(=O)CNC(=O)[C@H](CCC(N)=O)NC(=O)C(C)(C)NC(=O)[C@@H](N)Cc1c[nH]cn1)[C@@H](C)O)[C@@H](C)O)C(=O)N[C@@H](CCC(=O)O)C(=O)N[C@@H](CO)C(=O)N[C@@H](CCCCN)C(=O)N[C@@H](CCCNC(=N)N)C(=O)N[C@@H](C)C(=O)N[C@@H](CCCNC(=N)N)C(=O)N[C@@H](CCC(=O)O)C(=O)N[C@@H](Cc1ccccc1)C(=O)N[C@H](C(=O)N[C@@H](CCC(N)=O)C(=O)N[C@@H](Cc1c[nH]c2ccccc12)C(=O)N[C@@H](CC(C)C)C(=O)N[C@@H](CC(C)C)C(=O)N[C@@H](CCCCNC(=O)CC[C@H](NC(=O)CC[C@H](NC(=O)[C@H](CO)NC(=O)[C@H](CCC(=O)O)NC(=O)[C@H](CO)NC(=O)CC[C@H](NC(=O)CC[C@H](NC(=O)CCCCCCCCCCCCCCCCC(=O)O)C(=O)O)C(=O)O)C(=O)O)C(=O)O)C(=O)N[C@H](C(N)=O)[C@@H](C)O)C(C)C [NN1177] (H-H[Aib]QGTFTSDLSKYLESKRAREFVQWLLK([γGlu-γGlu-Ser-Glu-Ser-γGlu-γGlu-C18 diacid])T-NH2)	12.6 pM	impaired	at the level of vehicle	improved	improved	improved	0.3 nM	–	–	–
CC(C)C[C@H](NC(=O)[C@H](CC(C)C)NC(=O)[C@H](Cc1c[nH]c2ccccc12)NC(=O)[C@H](CCC(N)=O)NC(=O)[C@@H](NC(=O)[C@H](Cc1ccccc1)NC(=O)[C@H](CCC(=O)O)NC(=O)[C@H](CCCNC(=N)N)NC(=O)[C@H](C)NC(=O)[C@H](C)NC(=O)[C@H](CCCNC(=N)N)NC(=O)[C@H](CO)NC(=O)[C@H](CC(=O)O)NC(=O)[C@H](CC(C)C)NC(=O)[C@H](Cc1ccc(O)cc1)NC(=O)[C@H](CCCCN)NC(=O)[C@H](CO)NC(=O)[C@H](CC(C)C)NC(=O)[C@H](CC(=O)O)NC(=O)[C@H](CO)NC(=O)[C@@H](NC(=O)[C@H](Cc1ccccc1)NC(=O)[C@@H](NC(=O)CNC(=O)[C@H](CCC(=O)O)NC(=O)C(C)(C)NC(=O)[C@@H](N)Cc1c[nH]cn1)[C@@H](C)O)[C@@H](C)O)C(C)C)C(=O)N[C@@H](CC(N)=O)C(=O)N[C@@H](CCCCNC(=O)CC[C@H](NC(=O)CC[C@H](NC(=O)COCCOCCNC(=O)COCCOCCNC(=O)CC[C@H](NC(=O)CCCCCCCCCCCCCCCCC(=O)O)C(=O)O)C(=O)O)C(=O)O)C(N)=O [GLP-1 reference] (H-H[Aib]EGTFTSDLSKYLDSRAAREFVQWLLNK([γGlu-γGlu-AEEA-AEEA-γGlu-C18 diacid])-NH2)	24.6 pM	–	–	–	–	–	–	–	–	–
CC[C@H](C)[C@H](NC(=O)[C@H](Cc1ccccc1)NC(=O)[C@H](CCC(=O)O)NC(=O)[C@H](CCCNC(=N)N)NC(=O)[C@H](C)NC(=O)[C@H](C)NC(=O)[C@H](CCC(N)=O)NC(=O)[C@H](CCC(=O)O)NC(=O)[C@H](CCC(=O)O)NC(=O)[C@H](CC(C)C)NC(=O)[C@H](Cc1ccc(O)cc1)NC(=O)[C@H](CCCCN)NC(=O)[C@H](CO)NC(=O)[C@@H](NC(=O)[C@H](CC(=O)O)NC(=O)[C@H](CO)NC(=O)[C@@H](NC(=O)[C@H](Cc1ccccc1)NC(=O)[C@@H](NC(=O)CNC(=O)[C@H](Cc1c[nH]cn1)NC(=O)C(C)(C)NC(=O)CCc1c[nH]cn1)[C@@H](C)O)[C@@H](C)O)C(C)C)C(=O)N[C@@H](C)C(=O)N[C@@H](Cc1c[nH]c2ccccc12)C(=O)N[C@@H](CC(C)C)C(=O)N[C@@H](CC(C)C)C(=O)N[C@@H](CCCCNC(=O)COCCOCCNC(=O)COCCOCCNC(=O)CC[C@H](NC(=O)CC[C@H](NC(=O)CCCCCCCCCCCCCCCCC(=O)O)C(=O)O)C(=O)O)C(=O)N[C@H](C(N)=O)[C@@H](C)O [NN1359] (Desaminohistidyl-[Aib]HGTFTSDVSKYLEEQAAREFIAWLLK([AEEA-AEEA-γGlu-γGlu-C18 diacid])T-NH2)	95.3 pM	–	–	–	–	–	6.29 nM	significantly improved	significantly improved	significantly improved
